Results: patent publication US20230232830A1, “METHOD FOR REDUCING OR PREVENTING EFFECT OF NON-BIOLOGICAL STRESS ON PLANT” (NIPPON SODA CO., LTD., priority 2020, published 2023)

Legend:
soybean = assay: Bioassay 1, drought stress, soybean test (foliage spray, degree of withering); format: in vivo; settings: 200 ppm foliage spray; for Withering Index: 2 to 3 leaf stage, 2 days at 25° C., aerial parts cut out, four stages (0: healthy to 3: complete withering), average of test series
Description: (§1) A 5-membered heterocyclyl compound dissolved in DMF was diluted with water so that the concentration of the compound was 200 ppm, and a sufficient amount of the diluted solution was foliage-sprayed on corn and soybean at the 2 to 3 leaf stage.
(§2) Corn and soybean foliage-sprayed with a sufficient amount of a diluted solution prepared by removing the compound were used as the untreated plot.
(§3) The sprayed test plants were cultivated for 2 days under the conditions of a temperature of 25° C. and a day length of 14 hours.
(§4) The aerial parts were cut out and the corn or soybean of the untreated plot was left to stand until completely withered. The degree of withering was investigated from the perspective of four stages (0: healthy to 3: complete withering).
Here, with respect to soybean, complete withering refers to a state in which all the leaves of the soybean are withered and the upper part is curved.
(§5) Abscisic acid was used as a control. Abscisic acid (ABA), known as a plant hormone, is produced by the plant itself and is known as an important signal substance that closes the stomata during drought stress to suppress excessive transpiration of water from the leaves, and induces stress tolerance.
The index of ABA indicates the average of the results of a series of 10 tests. The index of the 5-membered heterocyclyl compound (F) indicates the average of the results of a series of 2 tests.

corn = assay: Bioassay 1, drought stress, corn test (foliage spray, degree of withering); format: in vivo; settings: 200 ppm foliage spray; for Withering Index: 2 to 3 leaf stage, 2 days at 25° C., aerial parts cut out, four stages (0: healthy to 3: complete withering), average of test series
Description: as §1, §2, §3, §4
As for corn, it refers to a bent state.
as §5
The index of ABA indicates the average of the results of a series of 10 tests. The index of the 5-membered heterocyclyl compounds (A) to (F) indicates the average of the results of a series of 2 tests.

Arabidopsis thaliana = assay: Bioassay 2, salt stress, survival of Arabidopsis thaliana plants in 150 mM NaCl; format: in vivo; settings: 168 h, 5 ppm compound for 1 day, then 150 mM NaCl for 7 days, green individuals alive, yellowed or bleached dead, read-out: Survival Rate (%)
Description: Arabidopsis thaliana seeds were sterilized with 70% ethanol and then sown in a petri dish containing HYPONeX (sterilized) diluted 4,000 times with water. The compound was diluted with sterile water so that the concentration of the compound dissolved in DMSO was 5 ppm. 65 μl of each drug solution was dispensed into a 96-well microplate, into which 5 Arabidopsis thaliana plants on their 8th day of sowing were placed and left to stand for 1 day. The next day, the plants were transferred to a well containing 65 μl of 150 mM NaCl and cultured for 7 days. The treatment was performed in two series, and in the investigation, a stereomicroscope was used to determine their survival, with the green individuals identified as alive and the yellowed or bleached individuals as dead.

Row | SMILES | Withering Index (corn) | responders at 5 ppm (Arabidopsis thaliana) | other results
1 | O=c1cc(OCc2ccc(-c3noc(C(F)(F)F)n3)cc2)ccn1CC1CC1 [Compound 4] | – | – | Withering Index (soybean): 1.5; melting point: 115 to 117 °C
2 | O=C(c1ccc(-c2noc(C(F)(F)F)n2)cc1)N1CCCCC1 [D] | 1.5 | 80% | –
3 | CON=C(C)c1ccc(C2=NOC(OC)(C(F)(F)F)C2)cc1 (centres unmarked) [Compound 9] | 1.5 | – | melting point: 80 to 82 °C
4 | CC1(NC(=O)c2ccc(-c3noc(C(F)(F)F)n3)cc2)CC1 [E] | 1.5 | – | –
5 | C=CCON=C1CN(C(=O)Cc2ccc(-c3noc(C(F)(F)F)n3)cc2)C1 [Compound 2] | – | 70% | –
6 | CCON=C1CN(C(=O)C(OC)c2ccc(-c3noc(C(F)(F)F)n3)cc2F)C1 (centres unmarked) [Compound 1] | – | 80% | –
7 | O=c1cccnn1Cc1ccc(-c2noc(C(F)(F)F)n2)cc1 [C] | 1.5 | – | –
8 | COc1cncn(Cc2ccc(-c3noc(C(F)(F)F)n3)cc2)c1=O [Compound 10] | 1.0 | – | melting point: 119 to 120 °C
9 | Cc1nc(C)n(Cc2ccc(-c3noc(C(F)(F)F)n3)cc2)c(=O)c1Cl [H] | 1.5 | – | –
10 | COCCn1cccc(OCc2ccc(-c3noc(C(F)(F)F)n3)cc2)c1=O [Compound 11] | 1.0 | – | melting point: 127 to 130 °C
11 | O=C(NC1CC1)c1ccn(Cc2ccc(-c3noc(C(F)(F)F)n3)cc2)n1 [K] | 1.0 | – | –
12 | O=C(NC12CC(C1)C2)c1ccc(-c2noc(C(F)(F)F)n2)cc1 [F] | 0.5 | – | reduction of drought stress compared with ABA (corn; result in words): showed an index higher than that of ABA; Withering Index (soybean): 1.5; reduction of drought stress compared with ABA (soybean; result in words): reduces the drought stress, although to a lesser extent than ABA
13 | CON=C1CN(c2cc(=O)n(Cc3ccc(-c4noc(C(F)(F)F)n4)cc3)cn2)C1 [Compound 3] | – | 70% | –
14 | CCON=C1CN(C(=O)C(OC)c2ccc(-c3noc(C(F)(F)F)n3)cc2)C1 (centres unmarked) [B] | 1.5 | – | –
15 | N#CCON=C1CN(C(=O)Cc2ccc(-c3noc(C(F)(F)F)n3)cc2)C1 [A] | 1.5 | – | –
16 | CC(=NOC/C=C/Cl)c1ccc(C2=NOC(O)(C(F)(F)F)C2)cc1 (centres unmarked) [Compound 8] | 1.5 | – | melting point: 126 to 128 °C
17 | CCON=C1CN(C(=O)C(C)c2ccc(-c3noc(C(F)(F)F)n3)cc2)C1 (centres unmarked) [G] | – | 80% | –
18 | CCOC(=O)c1ccnn1Cc1ccc(-c2noc(C(F)(F)F)n2)cc1 [L] | – | – | Withering Index (soybean): 1.5
19 | CC1=CC(=O)CC(C)(C)[C@@]1(O)/C=C/C(C)=C\C(=O)O [ABA, Abscisic acid, reference compound] | 1.1 | – | Withering Index (soybean): 0.5
20 | O=C1CCCCN1Cc1ccc(-c2noc(C(F)(F)F)n2)cc1 [M] | – | 70% | –
21 | FC(F)(F)c1nc(-c2ccc(COc3cc(Cl)ncn3)cc2)no1 [Compound 6] | 1.0 | – | melting point: 144 to 146 °C
22 | FC(F)(F)c1nc(-c2ccc(COc3cc(-n4cncn4)ncn3)cc2)no1 [Compound 7] | – | 70% | –
23 | CSc1nccc(OCc2ccc(-c3noc(C(F)(F)F)n3)cc2)n1 [Compound 5] | – | 80% | –
24 | O=c1c(Cl)c(Cl)cnn1Cc1ccc(-c2noc(C(F)(F)F)n2)cc1 [J] | 1.0 | – | –
